Results from patent US20170044471A1, “Sulfate-Free Liquid Laundry Detergent” (The Sun Products Corporation, priority 2015, published 2017).
Like-named read-outs stand apart in the source and are kept apart here.

How the values were obtained:
Zein = settings: normalized to SLS as 100%; Stepan Chemical company literature; cited from earlier work
Zein corn protein [1] = test: Zein test (Zein score, skin irritation potential); settings: 1 wt % active surfactant solution
Source text: (§1) Zein score can be measured using a Zein test (Gott, E., Aesthet. Medzin., Tenside 15: 313 (1966)), although other methodologies are known in the art. The Zein test determines the extent of denaturation of Zein corn protein after exposure to a surfactant for a given period of time. The higher the Zein score, the greater the skin irritation potential.
(§2) Zein scores for formulations (or detergent products) described herein refer to Zein scores obtained when a 10% dilution of a given formulation (or detergent product) is tested. Zein scores for individual surfactants refer to Zein scores obtained from testing 1% active surfactant solutions.
(§3) The “test surfactant solution” can be a solution with 1 wt % active surfactant when a surfactant is tested by itself Alternatively, the test surfactant solution can be a 10 wt % dilution of a formulation or product described herein. […] An aliquot (3.0 mL) was accurately measured and removed and set aside in a closed container as a blank solution. […] If all of the Zein protein was dissolved, 1 gram of additional Zein protein was added so that some solid remained undissolved. The mixture was stirred for one hour at room temperature. Undissolved Zein was then removed by filtration to obtain a filtrate solution. A 3.0 ml aliquot of the filtrate solution was accurately measured and placed in a tared aluminum pan and dried in an oven at 70° C. The percent of solids was calculated. Likewise, the blank solution was dried at 70° C. and the solids content of this 3 mL aliquot was determined. The solid weight in the blank solution was subtracted from the solid weight in the filtration solution and the quantity of dissolved Zein in the filtration solution was calculated by difference and reported as g Zein/100 g surfactant solution (also called “% Zein” or “Zein score”).
(§4) As a control, a Zein score was also measured for the Commercial Comparator using a 10% dilution.

Zein corn protein [2] = system: Zein corn protein
Source text: as §1, §2, §3, §4

| Compound | Normalized Zein Score of Surfactant (Zein) [%] | % Zein (g/100 g surfactant solution) (Zein corn protein [1]) | % Zein (g/100 g surfactant solution) (Zein corn protein [2]) |
| --- | --- | --- | --- |
| CCCCCCCCCCC(C(=O)OC)S(=O)(=O)O.[Na] (centres unmarked) [MES, Sodium methyl 2-sulfolaurate] | 68 | – | – |
| CCCCCCCCCCCCOS(=O)(=O)[O-].[Na+] [Sodium lauryl sulfate (SLS), Sodium lauryl sulfate] | – | 2.70 g/100 g surfactant solution | – |
| Cocoamidopropyl betaine [Cocoamidopropyl betaine (CAPB)] | 30 | – | 0.56 g/100 g surfactant solution |
| Disodium Laureth Sulfosuccinate [STEPAN-MILD SL3-BA] | 44 | – | – |
| Methyl ester sulfonate C16-C18 [Methyl ester sulfonate C16-C18 (MES)] | – | – | 1.55 g/100 g surfactant solution |
| Sodium C14-16 Olefin Sulfonate (AOS) [BIO-TERGE AS-40] | 75 | – | – |
| Sodium Methyl Cocoyl Taurate [Pureact WS Conc.] | 45 | – | – |
